The values that follow come from ChEMBL document CHEMBL1147171, “Synthesis and antiplasmodial activity of new N-[3-(4-{3-[(7-chloroquinolin-4-yl)amino]propyl}piperazin-1-yl)propyl]carboxamides” (Bioorg Med Chem, 2007).

SMILES strings stand for the structures.

For one experiment, the system named is L6. In words: Cytotoxicity against L6 cells. Format: cell-based. The following applies: Rattus norvegicus.
Experiment [1] deals with Plasmodium falciparum. In words: Antiparasitic activity against chloroquine-sensitive Plasmodium falciparum NF54 in erythrocytes by [3H]hypoxanthine uptake. Format: functional, organism-based.
For experiment [2], the system named is Plasmodium falciparum. In words: Antiparasitic activity against chloroquine, pyrimethamine-resistant Plasmodium falciparum K1 in erythrocytes by [3H]hypoxanthine uptake. Format: functional, organism-based.
Experiment [3] has as its system Plasmodium falciparum. In words: Relative activity against Plasmodium falciparum NF54 and K1 as IC50 ratio. Format: functional.

By IC50 is commonly meant the concentration at which inhibition is half-maximal. A lower IC50 goes with greater potency. In the case of `O=C(CCCOc1ccccc1)NCCCN1CCN(CCCNc2ccnc3cc(Cl)ccc23)CC1`, the 50% inhibitory concentration (IC50) in the experiment on L6 is 9300 nM; with Plasmodium falciparum [1], 12 nM; with Plasmodium falciparum [2], 73 nM. Moreover, in the experiment with Plasmodium falciparum [3], the “Ratio IC50” value is on record as 0.16.
Regarding `CCOc1ccc(C(=O)NCCCN2CCN(CCCNc3ccnc4cc(Cl)ccc34)CC2)cc1`, the IC50 in the experiment on L6 was 5300 nM; in the experiment on Plasmodium falciparum [1] it was 8 nM; in the experiment on Plasmodium falciparum [2], 12 nM. Moreover, in the experiment with Plasmodium falciparum [3], the “Ratio IC50” value is reported as 0.67.
Turning to `O=C(CCCc1ccccc1)NCCCN1CCN(CCCNc2ccnc3cc(Cl)ccc23)CC1`, the values for the half-inhibitory concentration (IC50) with L6, in the experiment with Plasmodium falciparum [1] and in the experiment with Plasmodium falciparum [2] were 11000 nM, 17 nM and 61 nM, respectively. In the experiment on Plasmodium falciparum [3], the “Ratio IC50” value came out at 0.28.
As for `O=C(NCCCN1CCN(CCCNc2ccnc3cc(Cl)ccc23)CC1)c1cc(F)cc(F)c1`, the figures for the concentration for half-maximal inhibition (IC50) in the experiment on L6, in the experiment on Plasmodium falciparum [1] and in the experiment on Plasmodium falciparum [2] were 11600 nM, 10 nM and 26 nM, respectively. Further, the “Ratio IC50” value in the experiment on Plasmodium falciparum [3] turned out to be 0.39.
As to `Cc1ccccc1C(=O)NCCCN1CCN(CCCNc2ccnc3cc(Cl)ccc23)CC1`, the IC50 in the experiment with Plasmodium falciparum [1] was determined as 10 nM; with Plasmodium falciparum [2], 34 nM. Moreover, in the experiment on Plasmodium falciparum [3], the “Ratio IC50” value is 0.29.
Take `COc1cccc(C(=O)NCCCN2CCN(CCCNc3ccnc4cc(Cl)ccc34)CC2)c1`: the results for the IC50 in the experiment with L6, with Plasmodium falciparum [1] and with Plasmodium falciparum [2] were 9300 nM, 10 nM and 28 nM, respectively. In addition, in the experiment with Plasmodium falciparum [3], the “Ratio IC50” value was found to be 0.36.
With `O=C(CCCC1CCCCC1)NCCCN1CCN(CCCNc2ccnc3cc(Cl)ccc23)CC1`, the results for the IC50 in the experiment with Plasmodium falciparum [1] and in the experiment with Plasmodium falciparum [2] were 156 nM and 272 nM, respectively. For the same compound, the “Ratio IC50” value in the experiment with Plasmodium falciparum [3] turned out to be 0.57.
As for `O=C(CCCCc1ccccc1)NCCCN1CCN(CCCNc2ccnc3cc(Cl)ccc23)CC1`, the IC50 with L6 came to 9400 nM; in the experiment with Plasmodium falciparum [1], 12 nM; in the experiment on Plasmodium falciparum [2], 54 nM. The “Ratio IC50” value in the experiment on Plasmodium falciparum [3] is reported as 0.22.
For the compound `O=C(NCCCN1CCN(CCCNc2ccnc3cc(Cl)ccc23)CC1)c1ccc(Cl)c([N+](=O)[O-])c1`, the IC50 with L6 was 11300 nM; in the experiment on Plasmodium falciparum [1], 20 nM; in the experiment with Plasmodium falciparum [2] it was 43 nM. Further, the “Ratio IC50” value in the experiment with Plasmodium falciparum [3] is 0.47.
Turning to `O=C(NCCCN1CCN(CCCNc2ccnc3cc(Cl)ccc23)CC1)c1ccc(Oc2ccccc2)cc1`, the IC50 was found to be 1400 nM with L6, 9 nM with Plasmodium falciparum [1] and 15 nM in the experiment on Plasmodium falciparum [2]. Also, the “Ratio IC50” value with Plasmodium falciparum [3] is on record as 0.6.
The like results for `O=C(NCCCN1CCN(CCCNc2ccnc3cc(Cl)ccc23)CC1)c1cccc(OC(F)(F)F)c1` were, in that order, 8500 nM, 12 nM, 15 nM and 0.8.
`CC(C)CC(=O)NCCCN1CCN(CCCNc2ccnc3cc(Cl)ccc23)CC1`: the concentration for half-maximal inhibition (IC50) stood at 13 nM with Plasmodium falciparum [1] and 78 nM in the experiment with Plasmodium falciparum [2]. Also, the “Ratio IC50” value in the experiment on Plasmodium falciparum [3] turned out to be 0.17.
For `CCCCCC(=O)NCCCN1CCN(CCCNc2ccnc3cc(Cl)ccc23)CC1` the same measures were 338 nM, 900 nM and 0.38.
For the compound `O=C(NCCCN1CCN(CCCNc2ccnc3cc(Cl)ccc23)CC1)c1cccc(C(F)(F)F)c1`, the IC50 in the experiment with L6 is 30100 nM; with Plasmodium falciparum [1] it was 37 nM; with Plasmodium falciparum [2] it was 53 nM. In the experiment on Plasmodium falciparum [3], the “Ratio IC50” value is 0.68.
The like results for `O=C(NCCCN1CCN(CCCNc2ccnc3cc(Cl)ccc23)CC1)C(c1ccccc1)c1ccccc1` were, in that order, 9300 nM, 25 nM, 106 nM and 0.24.
On to `COc1ccc(C(=O)NCCCN2CCN(CCCNc3ccnc4cc(Cl)ccc34)CC2)cc1OC`, for which the IC50 with Plasmodium falciparum [1] was 36 nM; in the experiment on Plasmodium falciparum [2] it was 447 nM. For the same compound, the “Ratio IC50” value in the experiment with Plasmodium falciparum [3] worked out at 0.08.
In the case of `O=C(CCCc1c[nH]c2ccccc12)NCCCN1CCN(CCCNc2ccnc3cc(Cl)ccc23)CC1`, the IC50 was found to be 6500 nM in the experiment with L6, 15 nM in the experiment on Plasmodium falciparum [1] and 69 nM with Plasmodium falciparum [2]. In addition, in the experiment with Plasmodium falciparum [3], the “Ratio IC50” value was found to be 0.22.
With `CC(=O)CCC(=O)NCCCN1CCN(CCCNc2ccnc3cc(Cl)ccc23)CC1`, the IC50 in the experiment with L6 came out at 11000 nM; in the experiment with Plasmodium falciparum [1] it was 59 nM; with Plasmodium falciparum [2] it was 380 nM. Also, the “Ratio IC50” value with Plasmodium falciparum [3] is 0.15.
Take `O=C(Cc1ccc(Cl)cc1Cl)NCCCN1CCN(CCCNc2ccnc3cc(Cl)ccc23)CC1`: the IC50 was 15100 nM in the experiment on L6, 8 nM with Plasmodium falciparum [1] and 24 nM in the experiment with Plasmodium falciparum [2]. In addition, the “Ratio IC50” value in the experiment with Plasmodium falciparum [3] worked out at 0.34.
For `O=C(NCCCN1CCN(CCCNc2ccnc3cc(Cl)ccc23)CC1)c1ccccc1C(=O)c1ccccc1` the same measures were 3200 nM, 10 nM, 17 nM and 0.59.
The like results for `CC(C)=CC(=O)NCCCN1CCN(CCCNc2ccnc3cc(Cl)ccc23)CC1` were, in that order, 30000 nM, 23 nM, 65 nM and 0.36.
For `O=C(Cc1cccc2ccccc12)NCCCN1CCN(CCCNc2ccnc3cc(Cl)ccc23)CC1` the same measures were 6200 nM, 13 nM, 41 nM and 0.32.
In the case of `O=C(NCCCN1CCN(CCCNc2ccnc3cc(Cl)ccc23)CC1)c1ccc(F)c(F)c1`, the IC50 in the experiment with L6 is 10000 nM; in the experiment on Plasmodium falciparum [1], 7 nM; in the experiment on Plasmodium falciparum [2] it was 13 nM. Besides, the “Ratio IC50” value with Plasmodium falciparum [3] is 0.54.
Turning to `O=C(Cc1c(Cl)cccc1Cl)NCCCN1CCN(CCCNc2ccnc3cc(Cl)ccc23)CC1`, the half-inhibitory concentration (IC50) in the experiment on L6 amounted to 5300 nM; in the experiment on Plasmodium falciparum [1] it was 11 nM; in the experiment with Plasmodium falciparum [2] it was 36 nM. Further, in the experiment with Plasmodium falciparum [3], the “Ratio IC50” value is on record as 0.32.
On to `NC(=O)c1ccc(C(=O)NCCCN2CCN(CCCNc3ccnc4cc(Cl)ccc34)CC2)cc1`, for which the IC50 in the experiment on Plasmodium falciparum [1] amounted to 83 nM; with Plasmodium falciparum [2], 249 nM. Besides, the “Ratio IC50” value in the experiment on Plasmodium falciparum [3] was 0.33.
As to `O=C(CC1CCCCC1)NCCCN1CCN(CCCNc2ccnc3cc(Cl)ccc23)CC1`, the IC50 is 7200 nM in the experiment on L6, 10 nM with Plasmodium falciparum [1] and 27 nM in the experiment with Plasmodium falciparum [2]. Besides, the “Ratio IC50” value in the experiment on Plasmodium falciparum [3] was 0.37.
For `O=C(NCCCN1CCN(CCCNc2ccnc3cc(Cl)ccc23)CC1)c1cc(Cl)cc(Cl)c1` the same measures were 3000 nM, 7 nM, 12 nM and 0.58.
Turning to `O=C(NCCCN1CCN(CCCNc2ccnc3cc(Cl)ccc23)CC1)c1ccc(C(=O)c2ccccc2)cc1`, the IC50 with Plasmodium falciparum [1] was determined as 1540 nM; with Plasmodium falciparum [2] it was 3070 nM. In addition, the “Ratio IC50” value in the experiment with Plasmodium falciparum [3] was found to be 0.5.
Turning to `CCc1ccc(C(=O)NCCCN2CCN(CCCNc3ccnc4cc(Cl)ccc34)CC2)cc1`, the IC50 in the experiment with L6 amounted to 3900 nM; with Plasmodium falciparum [1], 8 nM; with Plasmodium falciparum [2], 13 nM. The “Ratio IC50” value with Plasmodium falciparum [3] was 0.62.
The compound `CCN(CC)CCCC(C)Nc1ccnc2cc(Cl)ccc12` (stereo not given) [CHLOROQUINE] displayed an IC50 in the experiment with L6 of 7700 nM.
